In ChEMBL document CHEMBL1201862, “PubChem BioAssay data set” (2004):
Activity calls are given as the source filed them.

How the values were obtained:
[1] = target: T1, Corticotropin-releasing factor receptor 2/Corticotropin-releasing factor-binding protein (Homo sapiens, UniProt P24387+Q13324); experiment: Dose Response confirmation of uHTS hits for small molecule antagonists of the CRF-binding protein and CRF-R2 receptor complex.; format: functional; conditions: read-out: IC50_Mean
T1 sequence (Q13324 whole entry): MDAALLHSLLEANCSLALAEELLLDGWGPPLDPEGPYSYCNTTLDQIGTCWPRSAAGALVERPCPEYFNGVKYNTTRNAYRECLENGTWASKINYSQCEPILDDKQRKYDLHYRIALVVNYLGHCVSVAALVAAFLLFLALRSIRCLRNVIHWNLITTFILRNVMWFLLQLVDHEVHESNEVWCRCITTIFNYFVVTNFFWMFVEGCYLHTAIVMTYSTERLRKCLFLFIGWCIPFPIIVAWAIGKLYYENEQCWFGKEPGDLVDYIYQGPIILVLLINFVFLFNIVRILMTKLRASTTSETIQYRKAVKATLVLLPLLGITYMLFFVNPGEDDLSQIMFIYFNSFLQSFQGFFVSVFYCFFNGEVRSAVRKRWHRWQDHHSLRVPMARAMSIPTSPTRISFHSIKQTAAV
T1 sequence (P24387 whole entry): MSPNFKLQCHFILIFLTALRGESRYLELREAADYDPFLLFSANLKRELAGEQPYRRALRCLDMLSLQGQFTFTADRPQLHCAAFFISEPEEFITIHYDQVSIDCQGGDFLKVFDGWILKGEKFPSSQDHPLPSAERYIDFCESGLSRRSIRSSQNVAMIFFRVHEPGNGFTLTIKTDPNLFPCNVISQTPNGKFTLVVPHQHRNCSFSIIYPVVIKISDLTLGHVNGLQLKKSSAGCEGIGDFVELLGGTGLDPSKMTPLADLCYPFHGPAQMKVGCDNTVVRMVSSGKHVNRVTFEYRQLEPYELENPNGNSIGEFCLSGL

[2] = target: T1, Corticotropin-releasing factor receptor 2/Corticotropin-releasing factor-binding protein; experiment: activators of CRF receptor 2 with binding protein – uHTS hits, confirmation (AID 602473); format: functional; conditions: read-out: EC50_Mean
[3] = blockers of CRF-binding protein–CRF-R2 complex – cell-based, uHTS hits, 384-well, dose response (AID 651639); format: functional, Homo sapiens; conditions: read-out: IC50_Mean
[4] = blockers of HIV-1 envelope-mediated cell-cell fusion – cherry-pick, dose response (AID 652057); format: functional, cell-based
[5] = blockers of HIV-1 ZM109 envelope-driven cell-cell fusion – HeLa effector, CEM target cells, luciferase, cherry-pick, dose response (AID 652058); format: functional, cell-based;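 further: luciferase signal from HIV-1 Env mediated cell-cell fusion of effector and target cells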
[6] = off-target signal loss in HeLa-CEM21 co-culture – HeLa F-luc CTL cells, cherry-picked, counter-screen for HIV-1 Env fusion inhibitor project, dose response (AID 652040); format: functional, cell-based;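 further: potency for signal decrease marking cytotoxic or nonspecific inhibition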
[7] = HIV-1 AD8 envelope cell-cell fusion blockers – cherry-pick, dose response (AID 652062); format: functional, cell-based;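 further: luciferase signal from cell-cell fusion driven by HIV-1 clade B AD8 Env; potency is for inhibitors of fusion seen as a drop in luminescence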
[8] = target: Peroxisome proliferator-activated receptor gamma/Nuclear receptor coactivator 2 (Homo sapiens, UniProt P37231); format: functional;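 further: agonist potency for raising coactivator recruitment to the receptor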
Peroxisome proliferator-activated receptor gamma/Nuclear receptor coactivator 2, sequence (P37231 whole entry): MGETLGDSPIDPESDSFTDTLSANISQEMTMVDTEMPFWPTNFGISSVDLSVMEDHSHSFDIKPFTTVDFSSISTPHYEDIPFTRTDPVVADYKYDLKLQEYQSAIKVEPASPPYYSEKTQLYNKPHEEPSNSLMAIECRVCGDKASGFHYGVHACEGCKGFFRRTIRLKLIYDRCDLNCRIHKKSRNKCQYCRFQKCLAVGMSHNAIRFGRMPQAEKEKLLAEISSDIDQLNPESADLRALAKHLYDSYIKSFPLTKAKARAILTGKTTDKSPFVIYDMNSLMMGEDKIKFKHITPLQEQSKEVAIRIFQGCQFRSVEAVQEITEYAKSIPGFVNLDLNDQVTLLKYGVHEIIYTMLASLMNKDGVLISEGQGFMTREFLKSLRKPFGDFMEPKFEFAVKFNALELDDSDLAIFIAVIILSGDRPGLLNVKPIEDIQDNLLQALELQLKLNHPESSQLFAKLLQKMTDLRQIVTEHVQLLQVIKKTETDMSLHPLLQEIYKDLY
Peroxisome proliferator-activated receptor gamma/Nuclear receptor coactivator 2, sequence (Q15596 whole entry, further chain): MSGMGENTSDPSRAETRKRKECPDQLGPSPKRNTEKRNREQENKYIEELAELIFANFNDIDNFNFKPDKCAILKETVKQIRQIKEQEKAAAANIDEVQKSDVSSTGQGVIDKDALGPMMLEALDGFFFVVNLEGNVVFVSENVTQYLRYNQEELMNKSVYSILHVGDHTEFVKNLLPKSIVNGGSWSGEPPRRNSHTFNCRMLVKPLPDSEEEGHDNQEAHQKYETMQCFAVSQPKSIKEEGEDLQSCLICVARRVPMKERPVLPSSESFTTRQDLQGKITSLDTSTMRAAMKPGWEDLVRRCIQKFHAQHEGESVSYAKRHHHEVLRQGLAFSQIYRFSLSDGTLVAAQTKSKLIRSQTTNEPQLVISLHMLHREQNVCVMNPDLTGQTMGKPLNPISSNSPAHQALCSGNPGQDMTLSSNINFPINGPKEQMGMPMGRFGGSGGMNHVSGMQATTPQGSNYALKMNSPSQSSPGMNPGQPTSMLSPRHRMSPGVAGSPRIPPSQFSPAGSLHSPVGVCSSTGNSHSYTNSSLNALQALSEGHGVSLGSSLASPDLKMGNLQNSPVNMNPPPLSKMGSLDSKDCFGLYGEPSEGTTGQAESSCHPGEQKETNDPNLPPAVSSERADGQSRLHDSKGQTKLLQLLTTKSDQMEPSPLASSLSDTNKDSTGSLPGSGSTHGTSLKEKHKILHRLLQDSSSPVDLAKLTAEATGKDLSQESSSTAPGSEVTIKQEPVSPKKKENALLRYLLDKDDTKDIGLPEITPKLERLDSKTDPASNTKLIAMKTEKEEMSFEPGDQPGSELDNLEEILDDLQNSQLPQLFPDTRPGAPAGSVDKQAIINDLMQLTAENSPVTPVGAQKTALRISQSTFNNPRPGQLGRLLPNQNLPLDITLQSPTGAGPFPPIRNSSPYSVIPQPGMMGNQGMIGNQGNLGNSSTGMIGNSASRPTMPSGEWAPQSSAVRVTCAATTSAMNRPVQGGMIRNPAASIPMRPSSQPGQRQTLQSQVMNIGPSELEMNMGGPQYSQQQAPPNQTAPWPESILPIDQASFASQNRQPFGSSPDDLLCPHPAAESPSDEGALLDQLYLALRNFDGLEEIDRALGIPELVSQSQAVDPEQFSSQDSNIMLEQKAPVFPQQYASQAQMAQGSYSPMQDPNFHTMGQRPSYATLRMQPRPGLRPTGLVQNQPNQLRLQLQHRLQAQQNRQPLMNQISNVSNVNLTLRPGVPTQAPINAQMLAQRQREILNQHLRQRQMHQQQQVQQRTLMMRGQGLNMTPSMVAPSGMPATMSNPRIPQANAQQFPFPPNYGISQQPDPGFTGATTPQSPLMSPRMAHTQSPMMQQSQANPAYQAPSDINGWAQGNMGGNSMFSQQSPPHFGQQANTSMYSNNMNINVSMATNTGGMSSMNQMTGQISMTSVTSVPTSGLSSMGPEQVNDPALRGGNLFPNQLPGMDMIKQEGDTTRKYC

[9] = target: Peroxisome proliferator-activated receptor gamma/Nuclear receptor coactivator 1 (Homo sapiens, UniProt P37231); format: functional;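 further: agonist potency as compounds enhance coactivator SRC-1 recruitment to PPARgamma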
[10] = target: Peroxisome proliferator-activated receptor gamma/Nuclear receptor coactivator 3 (Homo sapiens, UniProt P37231); format: functional;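 further: agonist potency for raising coactivator recruitment to the receptor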
Peroxisome proliferator-activated receptor gamma/Nuclear receptor coactivator 3, sequence (P37231 whole entry, the tested form may be a part): as the sequence (P37231 whole entry) above
Peroxisome proliferator-activated receptor gamma/Nuclear receptor coactivator 3, sequence (Q9Y6Q9 whole entry, further chain, the tested form may be a part): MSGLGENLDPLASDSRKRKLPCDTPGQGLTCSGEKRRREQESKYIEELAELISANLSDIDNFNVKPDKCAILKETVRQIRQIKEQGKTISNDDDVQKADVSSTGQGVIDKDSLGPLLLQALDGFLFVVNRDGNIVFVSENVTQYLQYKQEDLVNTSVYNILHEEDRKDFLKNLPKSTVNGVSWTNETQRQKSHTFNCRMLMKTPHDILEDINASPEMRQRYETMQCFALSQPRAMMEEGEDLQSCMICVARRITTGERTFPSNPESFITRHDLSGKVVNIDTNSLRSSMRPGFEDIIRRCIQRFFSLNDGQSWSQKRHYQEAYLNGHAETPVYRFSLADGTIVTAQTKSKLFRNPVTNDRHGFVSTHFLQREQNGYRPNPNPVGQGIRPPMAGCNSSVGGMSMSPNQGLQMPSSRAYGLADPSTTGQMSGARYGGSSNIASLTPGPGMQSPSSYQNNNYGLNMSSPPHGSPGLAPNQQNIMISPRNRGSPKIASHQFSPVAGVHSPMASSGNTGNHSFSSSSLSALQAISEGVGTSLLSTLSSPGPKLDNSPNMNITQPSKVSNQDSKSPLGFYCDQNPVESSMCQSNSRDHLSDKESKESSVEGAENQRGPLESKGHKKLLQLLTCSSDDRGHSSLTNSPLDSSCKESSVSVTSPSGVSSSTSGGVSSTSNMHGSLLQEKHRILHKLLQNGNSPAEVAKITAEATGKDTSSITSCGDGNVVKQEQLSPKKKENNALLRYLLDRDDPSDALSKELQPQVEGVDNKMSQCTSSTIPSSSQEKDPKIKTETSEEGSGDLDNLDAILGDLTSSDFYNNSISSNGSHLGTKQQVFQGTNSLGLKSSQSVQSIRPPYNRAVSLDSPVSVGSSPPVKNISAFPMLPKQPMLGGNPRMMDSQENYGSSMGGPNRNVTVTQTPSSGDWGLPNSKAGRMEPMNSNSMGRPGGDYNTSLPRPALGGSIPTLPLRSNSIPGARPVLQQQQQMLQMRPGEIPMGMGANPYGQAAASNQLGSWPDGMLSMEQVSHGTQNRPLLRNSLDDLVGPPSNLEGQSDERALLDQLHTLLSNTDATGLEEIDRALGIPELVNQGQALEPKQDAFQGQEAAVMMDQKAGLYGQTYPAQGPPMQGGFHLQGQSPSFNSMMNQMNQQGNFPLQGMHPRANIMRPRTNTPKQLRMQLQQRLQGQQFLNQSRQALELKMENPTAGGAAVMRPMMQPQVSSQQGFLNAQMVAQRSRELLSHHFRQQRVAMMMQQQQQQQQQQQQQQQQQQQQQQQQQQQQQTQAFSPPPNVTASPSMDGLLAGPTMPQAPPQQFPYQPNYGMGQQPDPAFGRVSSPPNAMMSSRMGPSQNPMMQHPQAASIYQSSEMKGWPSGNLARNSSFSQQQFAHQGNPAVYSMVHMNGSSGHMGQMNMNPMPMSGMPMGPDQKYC

[11] = target: T2, Oxysterols receptor LXR-beta (Homo sapiens, UniProt P55055); format: functional, cell-based;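 further: agonist activity at LXR measured by a cell-based luminescence readout across a dose range, run as a counterscreen for daf-12 agonists; HEK293 cells with Gal4-LXR fusion and GAL4-driven luciferase reporter; potency for activation of Gal4-LXR reporter so compounds are agonists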
T2 sequence (P55055 whole entry): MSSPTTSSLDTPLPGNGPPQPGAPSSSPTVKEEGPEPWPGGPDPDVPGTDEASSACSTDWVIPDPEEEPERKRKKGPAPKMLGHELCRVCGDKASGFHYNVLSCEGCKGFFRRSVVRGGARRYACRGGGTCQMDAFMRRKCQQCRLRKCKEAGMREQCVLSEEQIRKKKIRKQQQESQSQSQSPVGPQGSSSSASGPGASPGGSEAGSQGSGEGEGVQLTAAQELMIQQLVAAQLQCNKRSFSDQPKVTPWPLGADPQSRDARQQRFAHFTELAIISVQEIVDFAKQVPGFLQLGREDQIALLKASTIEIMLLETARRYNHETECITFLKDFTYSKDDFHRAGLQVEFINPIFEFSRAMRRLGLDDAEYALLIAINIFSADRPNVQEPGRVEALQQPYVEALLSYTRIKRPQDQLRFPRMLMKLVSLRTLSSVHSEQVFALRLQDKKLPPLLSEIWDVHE

Paired box protein Pax-8 = Paired box protein Pax-8 (Homo sapiens, UniProt Q06710); experiment: PAX8 transcriptional activity inhibition in RMG-I – RMG-I cells, luciferase, cherry-pick, dose response (AID 687027); format: functional, cell-based;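 further: luciferase reporter driven by Pax8 target thyroperoxidase promoter measured by SteadyGlo luminescence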
Paired box protein Pax-8, sequence (Q06710 whole entry): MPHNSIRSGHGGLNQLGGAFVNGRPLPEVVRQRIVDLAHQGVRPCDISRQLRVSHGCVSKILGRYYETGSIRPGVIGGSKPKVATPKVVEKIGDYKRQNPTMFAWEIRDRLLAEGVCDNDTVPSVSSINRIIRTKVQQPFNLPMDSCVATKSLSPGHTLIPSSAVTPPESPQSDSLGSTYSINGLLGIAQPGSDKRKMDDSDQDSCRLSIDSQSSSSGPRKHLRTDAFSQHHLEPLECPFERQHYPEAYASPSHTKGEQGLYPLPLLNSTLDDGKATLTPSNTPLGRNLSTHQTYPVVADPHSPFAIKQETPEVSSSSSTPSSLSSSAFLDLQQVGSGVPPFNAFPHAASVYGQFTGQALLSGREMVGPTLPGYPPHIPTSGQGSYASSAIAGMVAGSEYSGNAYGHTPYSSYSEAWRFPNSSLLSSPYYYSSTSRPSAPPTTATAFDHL

[12] = OVCAR-3 cell viability loss – plate reader, dry powder samples, PAX8 inhibitor project, dose response (AID 743044); format: functional, cell-based
[13] = OVCAR8 cell viability loss – plate reader, dry powder samples, PAX8 project, dose response (AID 743197); format: functional, cell-based; conditions: OVCAR-8
[14] = luciferase reporter signal suppression in cells – H4 neuroglioma cells, luminescence, dose response (AID 1990); format: functional, cell-based
[15] = Luminescence Cell-Based Dose Response HTS to Identify Inhibitors of 5'UTR Stem-Loop Driven Prion Protein mRNA Translation in H4 Neuroglioblastoma Cells. [Related pubchem assays: 1827 (Project Summary), 1813 (Primary HTS)]; format: functional
[16] = alpha-synuclein stem-loop luciferase translation blockers – H4 neuroglioma cells, luminescence, confirmation (AID 1988); format: functional, cell-based
[17] = Trypanosoma cruzi growth suppression in host cells – NIH3T3 host cells, beta-gal luminescence, confirmation (AID 2044); format: functional, cell-based;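 further: intracellular parasites grown in NIH/3T3 mouse fibroblasts as host cells; luminescent beta-galactosidase reporter signal from transgenic T. cruzi replicating inside host cells; inhibitors lower the luminescence signal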
[18] = NIH3T3 cell viability loss – ATP luminescence, mouse fibroblasts, counter-screen, dose response (AID 2010); format: functional, cell-based;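 further: cells exposed to compound for about 90 hours before reading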
[19] = HEK-293T viability loss after treatment – luminescence, T-cell screen hits, cytotoxicity control for TCR NF-kB inhibitor project, dose response (AID 489026); format: functional, cell-based;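 further: cells exposed to compound about 14 hours before the viability readout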
INS1 = experiment: INS-1E survival protection against cytokine death – cell-based, luminescence, retest, dose response (AID 449756); format: functional; conditions: Rattus norvegicus;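 further: cell death triggered by IL-1 beta plus TNF-alpha plus IFN-gamma mixture; protective hits raise ATP signal compared with cytokine alone wells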
[20] = target: T3, COUP transcription factor 2 (Homo sapiens, UniProt P24468); experiment: Luminescence-based cell-based high throughput dose response assay to identify inhibitors of COUP-TFII (NR2F2).; format: functional;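 further: HEK293 cells transiently cotransfected with COUP-TFII expression vector and reporter; luciferase reporter luminescence driven by COUP-TFII from the pX2-168 reporter plasmid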
T3 sequence (P24468 whole entry): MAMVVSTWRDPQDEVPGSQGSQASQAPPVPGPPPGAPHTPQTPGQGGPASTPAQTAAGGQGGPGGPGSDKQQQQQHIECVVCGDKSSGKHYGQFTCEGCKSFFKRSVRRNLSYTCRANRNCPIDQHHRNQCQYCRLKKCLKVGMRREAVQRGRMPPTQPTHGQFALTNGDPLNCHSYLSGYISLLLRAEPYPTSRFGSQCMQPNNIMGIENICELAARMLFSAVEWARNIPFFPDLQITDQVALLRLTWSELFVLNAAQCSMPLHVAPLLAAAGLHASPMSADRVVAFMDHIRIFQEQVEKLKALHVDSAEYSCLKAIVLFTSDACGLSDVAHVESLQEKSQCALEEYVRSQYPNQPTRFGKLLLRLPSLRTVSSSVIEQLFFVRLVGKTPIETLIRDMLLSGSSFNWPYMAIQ

Caspase-6 = target: T4, Caspase-6 (Homo sapiens, UniProt P55212); experiment: inhibition of CASP6 peptide cleavage – biochemical, VEID-R110 fluorescence, cherry-pick, dose response (AID 720632)
T4 sequence (P55212 whole entry): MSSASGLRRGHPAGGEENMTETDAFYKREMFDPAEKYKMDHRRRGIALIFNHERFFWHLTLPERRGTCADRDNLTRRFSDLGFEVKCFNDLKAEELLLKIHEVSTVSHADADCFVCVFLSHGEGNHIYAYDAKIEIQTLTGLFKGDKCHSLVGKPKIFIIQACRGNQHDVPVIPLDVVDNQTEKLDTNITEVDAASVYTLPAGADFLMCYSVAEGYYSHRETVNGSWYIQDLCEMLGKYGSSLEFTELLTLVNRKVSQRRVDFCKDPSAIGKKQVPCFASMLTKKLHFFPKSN

With Cc1ccc(C)c(S(=O)(=O)C(C#N)c2nc3ccccc3nc2N2CCOCC2)c1 (stereo not given) the IC50 [1] was 39.8 µM (active), the EC50 [2] was 35.8 µM (active) and the IC50 [3] was > 20 µM (inactive).
With Cc1ccc(C(c2nnnn2CS(=O)(=O)c2ccc(C)cc2)N2CCCC2)cc1 (stereo not given) the AC50 [4] was 3.22 µM (active), the AC50 [5] was 3.55 µM (active) and the AC50 [6] was 3.97 µM (active). For the same molecule, the AC50 [7] was 2.35 µM (active).
For CCOC(=O)C1=NN(c2cccc(Cl)c2)C2=NC(C)=C(C(=O)OC)C(c3cccs3)N12 (stereo not given), the EC50 [8] was > 79.4 µM (not active), the EC50 [9] was > 79.4 µM (not active) and the EC50 [10] was > 79.4 µM (not active).
For COCCNC(=O)/C(C#N)=C/c1cc(C)n(C2CCCCC2)c1C, the EC50 [11] was > 67.5 µM (inactive).
For Cc1noc(C)c1S(=O)(=O)Nc1ccc2c(c1)C(=O)N([C@H](C)CO)C[C@H](C)[C@@H](CN(C)C(=O)Nc1ccc(C(F)(F)F)cc1)OCCCC[C@H](C)O2, the AC50 (Paired box protein Pax-8) was 9.4 µM (active), the AC50 [12] was < 0.26 µM (active) and the AC50 [13] was > 70 µM (inactive).
With N=c1ccn(CC(=O)c2ccc(-c3ccccc3)cc2)cc1 the EC50 [14] was 9.17 µM (active), the EC50 [15] was 12.3 µM (active) and the EC50 [16] was 7.33 µM (active). For the same molecule, the EC50 [17] was 2.01 µM (active), the EC50 [18] was > 60 µM (not active) and the IC50 [19] was > 80 µM (inactive). The AC50 (INS1) was 1.46 µM (active) and the IC50 [20] was 9.15 µM (active).
For C[C@H]1CN([C@@H](C)CO)C(=O)c2c(c3ccccc3n2C)-c2ccccc2CO[C@H]1CN(C)C(=O)Nc1cccc(F)c1, the AC50 [4] was < 0.26 µM (active), the AC50 [5] was < 0.26 µM (active) and the AC50 [6] was 0.362 µM (active). For the same molecule, the AC50 [7] was 2.88 µM (active).
For O=C(O)c1cc([N+](=O)[O-])cc2c1C=Cc1ccccc1O2, the AC50 (Caspase-6) was 37.5 µM (active).
In the case of COc1ccccc1CN(C)C(=O)C(c1ccccc1)c1ccccc1, the IC50 [1] is reported as 8.1 µM (active), the EC50 [2] is reported as > 53 µM (inactive) and the IC50 [3] is reported as > 20 µM (inactive).
